Data on 9 compounds can be found in ChEMBL document CHEMBL5038606 (J Med Chem, 2022).

Converted amounts (≈) assume the structure as drawn. Some results are limits rather than exact numbers.

As a reminder, the Ki is a measure of affinity in units of concentration, obtained from inhibition or displacement. Usually half-life stands for the time in which the quantity being followed falls by half. The solubility is how much of the substance goes into solution per volume. As usually defined, the fraction unbound is free concentration divided by total concentration. Usually AUC stands for the area under the concentration-time curve, a measure of exposure. A word on the bioavailability: it is dose-corrected exposure relative to a reference, in per cent.

Data set [1] has as its target Coagulation factor XI (Homo sapiens, UniProt P03951). Briefly: Binding affinity to human coagulation factor 11a using L-Pyroglutamyl-L-prolyl-L-arginine p-Nitroaniline as substrate assessed as inhibition constant measured upto 120 mins by spectrophotometric analysis.
Data set [2] has as its system Plasma. Put plainly: Anticoagulant activity in human plasma assessed as activated partial thromboplastin time. Format: functional.
Data set [3] in a line: Metabolic stability in human liver microsomes assessed as half life. It counts as ADME, Microsome.
Data set [4] is described as follows: Aqueous solubility of the compound at pH 1.0. Format: physicochemical. The settings on record: aqueous medium.
Data set [5] is described as follows: Fraction unbound in human plasma. It counts as ADME, cell-free.
Data set [6] can be described thus: Aqueous solubility of the compound at pH 6.5. Format: physicochemical. The note with it: aqueous medium.
Data set [7] is described as follows: Protein binding in Sprague-Dawley rat plasma assessed as bound fraction. It counts as ADME, cell-free. Further details: dose or concentration left out as unconfirmed.
Data set [8] in a line: AUC in Sprague-Dawley rat at 1.06 mg/kg, po. It counts as ADME, organism-based. Further details: dose 1.06 mg/kg. The note with it: in vivo.
Data set [9] can be described thus: Volume of distribution at steady state in Sprague-Dawley rat at 1.06 mg/kg, po or 0.53 mg/kg, iv. It counts as ADME, organism-based. The settings on record: in vivo, read-out: Vdss.
Data set [10] is described as follows: Clearance in Sprague-Dawley rat at 1.06 mg/kg, po or 0.53 mg/kg, iv. Format: ADME, organism-based. The settings on record: in vivo.
Data set [11] in a line: Half life in Sprague-Dawley rat at 1.06 mg/kg, po or 0.53 mg/kg, iv. It counts as ADME, organism-based. The settings on record: in vivo.
Data set [12] can be described thus: Oral bioavailability in Sprague-Dawley rat at 1.06 mg/kg. Format: ADME, organism-based. The settings on record: in vivo.
Data set [13] is described as follows: Metabolic stability in Sprague-Dawley rat liver microsomes assessed as half life. It counts as ADME, Microsome. Further details: dose or concentration left out as unconfirmed. A general note: Microsomes from liver hold many membrane-bound enzymes, among them those of drug oxidation.
Data set [14] in a line: Clearance in Sprague-Dawley rat at 1.10 mg/kg, po or 0.55 mg/kg, iv. Format: ADME, organism-based. The settings on record: in vivo, dose 1.1 mg/kg.
Data set [15] in a line: Oral bioavailability in Sprague-Dawley rat at 1.10 mg/kg. The note with it: in vivo, dose 1.1 mg/kg. It counts as ADME, organism-based.
A short description of data set [16]: Volume of distribution at steady state in Sprague-Dawley rat at 1.10 mg/kg, po or 0.55 mg/kg, iv. The settings on record: in vivo, dose 1.1 mg/kg, read-out: Vdss. Format: ADME, organism-based.
Data set [17] in a line: AUC in Sprague-Dawley rat at 1.10 mg/kg, po. Format: ADME, organism-based. Further details: dose 1.1 mg/kg. The settings on record: in vivo, 1.1 mg/kg.
A short description of data set [18]: Apparent permeability across apical to basolateral side in human Caco2 cells. Format: ADME, cell-based. The note with it: Caco-2, read-out: permeability. (In general: Caco-2 monolayers are a common model of the intestinal barrier.)
Data set [19] in a line: Half life in Sprague-Dawley rat at 1.10 mg/kg, po or 0.55 mg/kg, iv. It counts as ADME, organism-based. The note with it: in vivo, dose 1.1 mg/kg.

Sequence of Coagulation factor XI (P03951 19-387 limits assumed): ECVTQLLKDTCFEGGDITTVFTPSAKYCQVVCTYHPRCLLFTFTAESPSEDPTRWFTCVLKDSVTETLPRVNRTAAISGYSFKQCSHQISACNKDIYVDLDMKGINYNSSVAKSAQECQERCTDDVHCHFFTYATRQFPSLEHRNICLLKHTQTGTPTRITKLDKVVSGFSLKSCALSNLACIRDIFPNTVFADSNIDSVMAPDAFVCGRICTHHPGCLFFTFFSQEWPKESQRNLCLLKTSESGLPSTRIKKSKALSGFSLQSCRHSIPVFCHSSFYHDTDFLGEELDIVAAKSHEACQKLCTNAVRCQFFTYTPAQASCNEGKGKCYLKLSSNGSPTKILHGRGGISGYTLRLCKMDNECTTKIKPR
Sequence of Coagulation factor XI (P03951 388-625 limits assumed): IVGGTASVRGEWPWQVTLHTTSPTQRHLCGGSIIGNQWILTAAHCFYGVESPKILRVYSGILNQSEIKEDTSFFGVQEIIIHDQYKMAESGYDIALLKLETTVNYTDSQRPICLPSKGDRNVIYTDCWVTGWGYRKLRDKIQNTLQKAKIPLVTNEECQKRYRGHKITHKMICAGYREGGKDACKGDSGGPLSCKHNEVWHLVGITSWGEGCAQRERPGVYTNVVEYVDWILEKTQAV

Consider `C[C@@H]1CCC[C@H](N2CCC(c3c(F)ccc(Cl)c3F)=CC2=O)c2cc(ccn2)-c2nn(C)cc2NC1=O`, for which, in [1], the Ki turned out to be 171 nM.
As to `C[C@@H]1CCC[C@H](N2CCC(c3cc(Cl)ccc3-n3ccnn3)=CC2=O)c2cc(ccn2)-c2c(cnn2C2CCC2)NC1=O`, the EC1.5 in data set [2] worked out at 3.04 µM. For the same compound, the half-life in [3] amounted to 0.1 h.
Regarding `C[C@@H]1CCC[C@H](N2CCC(c3c(F)ccc(Cl)c3F)=CC2=O)c2cc(ccn2)-c2cn[nH]c2NC1=O`, the Ki in [1] stood at 330 nM.
In the case of `C[C@@H]1CCC[C@H](N2CCC(c3c(F)ccc(Cl)c3F)=CC2=O)c2cc(ccn2)-c2c(cnn2C)NC1=O`, the figures for the solubility in data set [4] and in data set [6] were 3 µg/mL (≈ 5.7 µM) and 0.15 µg/mL (≈ 0.285 µM), respectively. The fraction unbound in data set [5] stood at 0.007.
For `C[C@@H]1CCC[C@H](N2CCC(c3cc(Cl)ccc3-n3cc(Cl)nn3)=CC2=O)c2cc(ccn2)-c2c(cnn2C)NC1=O`, the EC1.5 in data set [2] is 0.3 µM. Besides, the half-life in data set [3] amounted to 1.08 h.
Regarding `C[C@@H]1CCC[C@H](N2CCC(c3cc(Cl)ccc3-n3ccnn3)=CC2=O)c2cc(ccn2)-c2c(cnn2CC(F)F)NC1=O`, the inhibitory constant (Ki) in data set [1] came to 11 nM. Besides, in data set [2], the EC1.5 worked out at 1.54 µM. In addition, the half-life in data set [3] was determined as 1.27 h.
Take `C[C@@H]1CCC[C@H](N2CCC(c3cc(Cl)ccc3-n3cc(Cl)nn3)=CC2=O)c2cc(ccn2)-c2c(cnn2C(F)F)NC1=O`: the fraction unbound in [7] was 0.06. The compound further registered an AUC in [8] of 0.3 µM·h. The Vd in data set [9] stood at 1.4 L/kg. In data set [10], this compound yielded a clearance of 17 mL/min/kg. The values for the half-life in [11], in data set [13] and in data set [3] were 1.2 h, over 2 h and over 2 h, respectively. For the same compound, the Ki in data set [1] stood at 0.07 nM. Further, the EC1.5 in data set [2] stood at 0.39 µM. Moreover, in data set [12], the bioavailability is 18%.
On to `C[C@@H]1CCC[C@H](N2CCC(c3cc(Cl)ccc3-n3ccnn3)=CC2=O)c2cc(ccn2)-c2c(cnn2C(F)F)NC1=O`, for which, in data set [7], the fraction unbound was 0.249. Besides, in data set [14], the clearance worked out at 42 mL/min/kg. Further, in data set [15], the bioavailability was found to be 7%. Further, the Vd in data set [16] turned out to be 1.2 L/kg. Further, in data set [2], the EC1.5 is 0.45 µM. The compound further showed an AUC in data set [17] of 0.068 µM·h. In addition, in data set [18], the Papp A→B was under 1.5 ×10⁻⁶ cm/s. Also, the half-life in [19] is 0.5 h; in [13] it was over 2 h; in data set [3] it was 1.67 h.
In the case of `C[C@@H]1CCC[C@H](n2cnc(-c3cc(Cl)ccc3-n3cc(Cl)nn3)cc2=O)c2cc(ccn2)-c2c(cnn2C)NC1=O`, the EC1.5 in data set [2] was 0.3 µM. Moreover, the half-life in [3] was determined as 1.93 h.
